Data taken from patent US6432928B1, “Complexes and their compositions” (Chinoin Gyogyszer es Vegyeszeti Termekek Gyara Rt., priority 1994, dated 2002).
Values after ≈ are worked out from the molar mass of the structure shown. Where two headings read alike, the source gives them in different places. One block for each compound: values may come before it.

Key:
physchem [1] = settings: 22 °C, thermodynamic from solid
[2] = cited from earlier work
physchem [3] = settings: 25 °C, water
[4] = Appearance and Taxol content of the compositions as prepared; format: physicochemical; settings: Taxol alone dissolved in ethanol or 1:1 ethanol and water
[5] = Solubility of Taxol with cyclodextrins and co-solvents, Higuchi-Connor method, HPLC; settings: for solubility: Taxol with RAMEB
cell line PC 3 = assay: SRB-assay of cell growth, cell line PC 3; format: cell-based, human; settings: for cell growth by SRB-assay, extinction at 540 nm / cell growth, % of control: PC 3, 10^−6M of Taxol and cyclodextrin; for cell growth, % of control: control = 100%; for toxicity to the cells, in words: PC 3, tested concentration of Table 2 (10^−6M, 0.001 mM)
Procedure: (§1) As control solutions containing similar amounts of cyclodextrins and no Taxol, further the Taxol-Cremophor EL composition. Cremophor EL solution and the untreated cell cultures were examined.
(§2) The experiments were carried out and evaluated on both cell lines according to the examination methods of F. Skehan et al [New Colorimetric Assay of Anticancer Drug Screening, J. Natl. Canc. Inst. 82, 1107-1113 (1990) and A. Martin and M. Clynes (Comparison of 5 Microplate Colorimetric Assays for in Vitro Cytotoxicity Testing and Cell Proliferation Assays, Cytotechnology 11, 49-58 (1993)] in the Pathological and Experimental Cancer Research Institute No. 1 of the Semmelweis Medical University, Budapest.
(§3) The cells were exposed in a RPMI 1640 medium containing 10% of Foetal Calf Serum (FCS) medium on a microplate of 96 wells, by placing 5000 cells in 100 μl of medium.
(§4) The cell cultures were treated after 24 hours with a solution containing the test substances in 100 μl of a FCS-free RPMI medium, thus the final concentration of FCS became 5%. Every evaluation point is the averaged result of 8 parallels, the control was present in 8 parallels on each plate, thus the evaluation point was obtained by averaging 24 parallels. The eight test compositions were examined simultaneously, in one test on each cell line.
(§5) After 72 and 96 hours the cell growth was measured by SRB-assay (the determining method is SRB-painting of the total protein, the total protein is proportional to the cell growth, the extinction was read by a Microplate reader at a wave length of 540 nm).

cell line K562 = assay: SRB-assay of cell growth, cell line K 562; format: cell-based, human; settings: for cell growth by SRB-assay, extinction at 540 nm / cell growth, % of control: K562, 10−6M of Taxol and cyclodextrin; for cell growth, % of control: control = 100%; for toxicity to the cells, in words: K562, tested concentration of Table 3 (10−6M, 0.001 mM)
Procedure: as §1, §2, §3, §4, §5

mouse = mouse experiments, a 50% triacetine emulsion; cited from earlier work
[6] = cited from earlier work; remark: listed apart in the source

solubility at 24 h (physchem [1]; 2:1 ethanol:water, aqueous with cosolvent or surfactant or cyclodextrin): 4000 µg/mL (≈ 4.68 mM) | solubility at 24 h (physchem [1]; DIMEB in 2:1 ethanol:water, aqueous with cosolvent or surfactant or cyclodextrin): 4000 µg/mL (≈ 4.68 mM) | solubility at 24 h (physchem [1]; DIMEB in water, aqueous with cosolvent or surfactant or cyclodextrin): ~1000 µg/mL (≈ 1.17 mM) | solubility at 24 h (physchem [1]; OH-P-βCD in water, aqueous with cosolvent or surfactant or cyclodextrin): 100 µg/mL (≈ 0.117 mM) | solubility at 24 h (physchem [1]; RAMEB in 2:1 ethanol-water, aqueous with cosolvent or surfactant or cyclodextrin): 4000 µg/mL (≈ 4.68 mM) | solubility at 24 h (physchem [1]; RAMEB in ethanol-water, aqueous with cosolvent or surfactant or cyclodextrin): 4000 µg/mL (≈ 4.68 mM) | solubility at 24 h (physchem [1]; water): 5.9 µg/mL (≈ 0.00691 mM) | solubility at 24 h (physchem [1]; γ-CD in 2:1 ethanol:water, aqueous with cosolvent or surfactant or cyclodextrin): 4000 µg/mL (≈ 4.68 mM) | solubility (physchem [3]): 0.55 to 0.59 µg/mL (≈ 0.000644 to 0.000691 mM) | behaviour on dilution [4]: immediately precipitates when diluted | remark (appearance) ([5]; Taxol 4 mg/ml with γ-CD 1:63, 2:1 ethanol:water, remark wraps over r10-r11: white suspension): white | remark (appearance) ([5]; Taxol 4 mg/ml, no CD, 2:1 ethanol:water, remark wraps over r6-r9: clear solution. opalescening. then white precipitate): clear solution. | solubility ([5]; molar ratio Taxol:CD 1:278, water): 859.9 µg/mL | solubility ([5]; molar ratio Taxol:CD 1:750, water): 42.5 µg/mL | solubility ([5]; molar ratio Taxol:CD 1:1500, water): 4.4 µg/mL | solubility ([5]; molar ratio Taxol:CD 1.300, water): 231.7 µg/mL
SMILES: CC(=O)O[C@H]1C(=O)[C@@]2(C)[C@H]([C@H](OC(=O)c3ccccc3)[C@]3(O)C[C@H](OC(=O)[C@H](O)[C@@H](NC(=O)c4ccccc4)c4ccccc4)C(C)=C1C3(C)C)[C@]1(OC(C)=O)CO[C@@H]1C[C@@H]2O (relative stereo) [Taxol, [2aR-[2aα,4β,4αβ,6β,9α(αR*,βS*a11α,12α,12aα,12bα]]-β-(benzoylamino)-α-hydroxy-benzene-propanoic acid 6,12-b-bis(acetyloxy)-12-(benzoyloxy)-2a,3-4,4a,5,6,9,10,11,12,12a,12b-dodecahydro-4,11-dihydroxy-4a,8,13,13-tetra-methyl-5-oxo-7,11-methano-1H-cyklodeca[3,4]-benz-[1,2-b]-oxeth-9-yl-ester]]
solubility ([2]; 250-350 moles of a methylated cyclodextrin derivative related to 1 mole of Taxol (Hungarian application P93 01373)): about 1 mg/ml | solubility of Taxol ([2]; mixed micelle system with bile acid salts and phospholipide): 800 µg/mL | solubility ([2]; with γ-cyclodextrin, molar ratio of 1:20): 160 µg/mL

SMILES: OC[C@H]1O[C@@H]2O[C@H]3[C@H](O)[C@@H](O)[C@@H](O[C@H]4[C@H](O)[C@@H](O)[C@@H](O[C@H]5[C@H](O)[C@@H](O)[C@@H](O[C@H]6[C@H](O)[C@@H](O)[C@@H](O[C@H]7[C@H](O)[C@@H](O)[C@@H](O[C@H]8[C@H](O)[C@@H](O)[C@@H](O[C@H]9[C@H](O)[C@@H](O)[C@@H](O[C@H]1[C@H](O)[C@H]2O)O[C@@H]9CO)O[C@@H]8CO)O[C@@H]7CO)O[C@@H]6CO)O[C@@H]5CO)O[C@@H]4CO)O[C@@H]3CO [γ-CD, γ-cyclodextrin]
cell growth by SRB-assay, extinction at 540 nm (cell line PC 3; incubation time 72 hours): 0.582 ± 0.126 | cell growth, % of control (cell line PC 3; incubation time 72 hours): (77%) | cell growth by SRB-assay, extinction at 540 nm (cell line PC 3; incubation time 96 hours): 0.937 ± 0,214 | cell growth, % of control (cell line PC 3; incubation time 96 hours): (71%) | toxicity to the cells, in words (cell line PC 3): slightly toxic | cell growth by SRB-assay, extinction at 540 nm (cell line K562; incubation time 72 hours): 0.555 ± 0.200 | cell growth, % of control (cell line K562; incubation time 72 hours): (50%) | cell growth by SRB-assay, extinction at 540 nm (cell line K562; incubation time 96 hours): 0.531 ± 0,072 | cell growth, % of control (cell line K562; incubation time 96 hours): (34%) | toxicity to the cells, in words (cell line K562): very toxic

SMILES: CC(=O)OCC(COC(C)=O)OC(C)=O [triacetine, 1,2,3-triacetyl-glycerol]
LD50 (mouse): 1.2 mg/mL

SMILES: O=C(O)c1ccccc1Nc1cccc(C(F)(F)F)c1 [flufenamic acid]
“aqueous” stability constant ([6]; aqueous, without methanol): 1300 M⁻¹ | stability constant ([6]; in the presence of 25% by volume methanol): about 400 M^31 1

SMILES: COC[C@H]1O[C@@H]2O[C@H]3[C@H](O)[C@@H](OC)[C@@H](O[C@H]4[C@H](O)[C@@H](OC)[C@@H](O[C@H]5[C@H](O)[C@@H](OC)[C@@H](O[C@H]6[C@H](O)[C@@H](OC)[C@@H](O[C@H]7[C@H](O)[C@@H](OC)[C@@H](O[C@H]8[C@H](O)[C@@H](OC)[C@@H](O[C@H]1[C@H](O)[C@H]2OC)O[C@@H]8COC)O[C@@H]7COC)O[C@@H]6COC)O[C@@H]5COC)O[C@@H]4COC)O[C@@H]3COC [DIMEB, heptakis-2,6-0-dimethyl-β-cyclodextrin]
cell growth by SRB-assay, extinction at 540 nm (cell line PC 3; incubation time 72 hours): 0.725 ± 0.200 | cell growth, % of control (cell line PC 3; incubation time 72 hours): (96%) | cell growth, % of control (cell line PC 3; incubation time 96 hours): (102%) | toxicity to the cells, in words (cell line PC 3): not toxic | cell growth by SRB-assay, extinction at 540 nm (cell line K562; incubation time 72 hours): 0.819 ± 0.178 | cell growth, % of control (cell line K562; incubation time 72 hours): (74%) | cell growth by SRB-assay, extinction at 540 nm (cell line K562; incubation time 96 hours): 1.729 ± 0.185 | cell growth, % of control (cell line K562; incubation time 96 hours): (110%) | toxicity to the cells, in words (cell line K562): not toxic
